Experimental data from PubChem BioAssay (NCI).
“And” between values parts separate entries of the source, which are not always exact repeats. Identical values can stand only once.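 Interpolation was linear, between the two tested concentrations surrounding the appropriate level; five concentrations were tested over 48 hours in 96-well plates. GI50: concentration for 50% inhibition of growth. The concentration for full growth arrest is given as TGI.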

Assays:
Assay in all cases: inhibition of tumour cell growth, NCI panel, 48 h
BT-549 breast = tested on: BT-549 breast
COLO 205 colon = tested on: COLO 205 colon
HS 578T breast = tested on: HS 578T breast
K-562 leukemia = tested on: K-562 leukemia
NCI-H460 lung = tested on: NCI-H460 lung
OVCAR-5 ovarian = tested on: OVCAR-5 ovarian
RPMI-8226 leukemia = tested on: RPMI-8226 leukemia
SR leukemia = tested on: SR leukemia
T-47D breast = tested on: T-47D breast
UACC-257 melanoma = tested on: UACC-257 melanoma

SMILES	GI50 (BT-549 breast)	TGI (BT-549 breast)	GI50 (COLO 205 colon)	TGI (COLO 205 colon)	GI50 (HS 578T breast)	TGI (HS 578T breast)	GI50 (K-562 leukemia)	TGI (K-562 leukemia) [µM]	GI50 (NCI-H460 lung)	TGI (NCI-H460 lung)	GI50 (OVCAR-5 ovarian)	TGI (OVCAR-5 ovarian)	GI50 (RPMI-8226 leukemia)	TGI (RPMI-8226 leukemia)	GI50 (SR leukemia)	TGI (SR leukemia)	GI50 (T-47D breast)	TGI (T-47D breast)	GI50 (UACC-257 melanoma)	TGI (UACC-257 melanoma)
COc1ccc2nc3c(cc2c1)C(=O)CC(c1ccccc1)C3 (centres undefined)	1.36 µM	> 100 µM	0.732 µM	> 100 µM	0.882 µM	> 100 µM	0.359 µM	> 100	1.44 µM	> 100 µM	6.83 µM	> 100 µM	3.65 µM	> 100 µM	0.379 µM	> 100 µM	5.34 µM	> 100 µM	> 100 µM	> 100 µM
Cc1ccc2[nH]c(O)c(N=Nc3ccccc3[N+](=O)[O-])c2c1	–	> 94.3 µM	–	> 100 µM	–	28.9 µM	–	> 100	–	> 100 µM	–	> 84.3 µM	–	> 100 µM	–	32.6 µM	–	14 µM	–	> 100 µM
O=C(Nc1n[nH]c2nc(-c3ccc(O)cc3)c(Br)cc12)C1CC1	5.78 µM	19.8 µM	3.18 µM	8.76 µM	4.15 µM	21.6 µM	2.86 µM	> 25	1.89 µM	> 20.1 µM	7.46 µM	21.7 µM	6.05 µM	15.7 µM	1.53 µM	> 15.4 µM	3.81 µM	14.5 µM	6.36 µM	17 µM
CN(/N=C/c1ccccc1O)c1ccc2ccccc2n1	–	61.1 µM	–	> 100 µM	–	72.8 µM	–	> 100	–	55 µM	–	> 100 µM	–	> 100 µM	–	36.8 µM	–	50.4 µM	–	> 100 µM
COc1ccc(C2CC(c3ccc(OC)cc3O)=NN2c2ccc(S(N)(=O)=O)cc2)cc1 (centres undefined)	13.5 µM	57.2 µM	5.98 µM	20.1 µM	8.22 µM	98.9 µM	5.71 µM	> 100	6.74 µM	39.2 µM	79.9 µM	> 100 µM	4.67 µM	> 100 µM	1.47 µM	9.61 µM	4.42 µM	85.6 µM	15.9 µM	> 100 µM
O=C1/C(=C/c2ccc(F)cc2)CN(C(=O)C(Cl)Cl)C/C1=C\c1ccc(F)cc1	0.253 µM	0.81 µM	0.353 µM	1.42 µM	0.325 µM	1.37 µM	0.0533 µM	> 100	0.294 µM	0.878 µM	0.323 µM	1.1 µM	0.0341 µM	0.324 µM	0.0386 µM	> 100 µM	0.702 µM	3.6 µM	0.45 µM	1.62 µM
S=C1SCN(Cc2ccccc2)CN1Cc1ccccc1	6.51 µM	33.4 µM	3.21 µM	11.6 µM	3.02 µM	25.6 µM	1.15 µM	9	31 µM	> 100 µM	25.7 µM	> 60.5 µM	0.119 µM	0.415 µM	0.303 µM	3.02 µM	3.51 µM	21.1 µM	16 µM	33.2 µM
O=C(Nc1cn[nH]c1-c1nc2ccc(CN3CCOCC3)cc2[nH]1)NC1CC1	0.385 µM and 0.963 µM	2.13 µM and > 10 µM	0.0376 µM and 0.0752 µM	1.75 µM and 3.81 µM	0.118 µM and 0.125 µM	0.717 µM and 0.681 µM	0.543 µM and 1.59 µM	> 100	1.78 µM and 7.25 µM	10.5 µM and > 10 µM	2.78 µM and 6.68 µM	9.49 µM and > 10 µM	7.05 µM and > 10 µM	28.3 µM and > 10 µM	0.0277 µM and 0.0539 µM	4.15 µM and 5.52 µM	1.82 µM and 9.18 µM	6.95 µM and > 10 µM	1.72 µM and > 10 µM	7.76 µM and > 10 µM
C#Cc1cccc(NC(=O)c2cccc(NC(=O)CCl)c2)c1	17.8 µM	70.4 µM	22 µM	> 82.5 µM	17.4 µM	76.2 µM	7.74 µM	> 82.5	5.49 µM	20 µM	15.8 µM	40.8 µM	17.3 µM	59.3 µM	4.79 µM	43.1 µM	30.2 µM	> 82.5 µM	54.7 µM	> 82.5 µM
O=C(c1ccc2ccccc2c1)c1c(C(F)(F)F)n([O-])c2cc(C(F)(F)F)ccc2[n+]1=O	1.43 µM	2.9 µM	1.92 µM	4.05 µM	–	> 22.2 µM	1.38 µM	2.9	1.66 µM	3.44 µM	2.03 µM	4.79 µM	1.25 µM	3.37 µM	0.86 µM	2.64 µM	1.31 µM	3.38 µM	1.22 µM	2.69 µM
CCCS(=O)(=O)Nc1cccc(Nc2ncnc3cc(NC(=O)CCl)ccc23)c1Cl	2.42 µM	6.69 µM	1.2 µM	5.51 µM	3.32 µM	17 µM	1.04 µM	17.1	3.67 µM	8.06 µM	2.01 µM	5.64 µM	3.23 µM	8.56 µM	0.838 µM	5.49 µM	3.34 µM	9.99 µM	2.46 µM	7.57 µM
O=S(=O)(O)n1ccnc1 (tested in a mixture with another compound)	–	> 100 µM	–	> 100 µM	–	> 100 µM	–	> 100	–	> 100 µM	–	> 100 µM	–	> 100 µM	–	> 100 µM	–	> 100 µM	–	> 100 µM
CCN(CC)CCn1c(=O)c2cc(OC)c(OC)cc2c2ccc3cc4c(cc3c21)OCO4	0.456 µM	17.2 µM	0.192 µM	16.4 µM	12.4 µM	45.4 µM	0.536 µM	–	0.0766 µM	1.41 µM	8.21 µM	36.1 µM	0.436 µM	4.56 µM	0.0415 µM	2.51 µM	0.26 µM	26.4 µM	0.472 µM	22.2 µM
CC1OC(CC(=O)O)Cc2c1c(O)c1c(O)cc(-c3cc(=O)c4c(=O)c5c(c(=O)c=4c3=O)CC(CC(=O)O)OC5C)c(O)c1c2O (centres undefined)	52.7 µM	–	29.9 µM	18.1 µM and 92.9 µM	38.3 µM	–	61.1 µM	> 83.6	35 µM	> 100 µM	53.1 µM	> 91.1 µM	20.9 µM	81.6 µM and 68.7 µM	–	53.9 µM	30 µM	–	21.8 µM	26.9 µM and 66.9 µM
CCOC(=O)c1c2c(n3ccc(NC(=O)CCN4CCCCC4)cc13)C(=O)c1ncccc1C2=O	4.1 µM	21.4 µM	1.18 µM	2.75 µM	0.351 µM	6.57 µM	0.117 µM	2.57	< 0.01 µM	0.443 µM	1.38 µM	3.2 µM	1.41 µM	4.49 µM	< 0.01 µM	1.2 µM	8 µM	30.2 µM	2.45 µM	7.99 µM
NNc1nc2ccccc2o1	–	> 100 µM	–	> 100 µM	–	> 100 µM	–	> 100	–	> 100 µM	–	> 100 µM	–	> 100 µM	–	> 100 µM	–	> 100 µM	–	> 100 µM
FC(F)(F)c1nc(SCc2ccc(Cl)cc2)n[nH]1	–	> 100 µM	–	> 100 µM	–	> 100 µM	–	> 100	–	> 100 µM	–	> 100 µM	–	> 100 µM	–	> 100 µM	–	> 100 µM	–	> 100 µM
COC(=O)C1=C(C(=O)ON)[C@@H]2C=C[C@@]1([C@@H](Cc1ccccc1)Nc1ccccc1)O2	7.06 µM	19.6 µM	1.77 µM	3.57 µM	19.5 µM	68.7 µM	2.46 µM	8.72	16.6 µM	32.4 µM	15.6 µM	31 µM	2.13 µM	5.32 µM	2.02 µM	10.4 µM	1.61 µM	4.17 µM	2.07 µM	4.5 µM
O=c1oc2ccc(Cl)cc2c(=O)n1-c1ccc(F)cc1F	1.09 µM	5.89 µM	7.92 µM	23.9 µM	1.55 µM	7.66 µM	2.03 µM	> 100	2.2 µM	11.5 µM	3.43 µM	97.5 µM	0.994 µM	4.18 µM	1.04 µM	9.75 µM	1.08 µM	5.27 µM	0.45 µM	4.08 µM
